Laboratory results: PMC11576293, “New series of 4,6-diaryl pyrimidines: facile synthesis and antiproliferative activity as dual EGFR/VEGFR-2 inhibitors” (Frontiers in Chemistry, 2024)

What was measured:
Assay type in all cases: cell-based
IGROV1 = test: NCI-60 single-dose screen; conditions: Homo sapiens, IGROV-1, single dose 10 µM, '-' = no inhibition, read-out: % Growth Inhibition
Description: (§1) The National Cancer Institute’s Developmental Therapeutic Program (www.dtp.nci.nih.gov) has tested compounds 9–29 (except compounds 21 and 22) against 60 cancer cell lines from nine types (leukemia, lung, colon, CNS, melanoma, ovarian, renal, prostate, and breast cancer) at a single dose (10 μM) ([El-Sherief et al., 2018]). […] The most sensitive cells included leukemia (SR, K-562, and MOLT-4), lung (NCI-H522, […], and EKVX), breast (MCF-7 and T-47D), colon (HCT-15 and HT-29), and ovarian (NCI/ADR-RES).
(§2) The National Cancer Institute’s Developmental Therapeutic Program (www.dtp.nci.nih.gov) evaluated compounds 9–29 (excluding 21 and 22) against 60 cancer cell lines from nine categories (leukemia, lung, colon, CNS, melanoma, ovarian, renal, prostate, and breast cancer) at a single dose (10 μM) ([El-Sherief et al., 2018]). See Supplementary Material A1 for more details.

COLO 205 = test: NCI-60 single-dose screen; conditions: Homo sapiens, single dose 10 µM, '-' = no inhibition, read-out: % Growth Inhibition
Description: as §1, §2

HS 578T = test: NCI-60 single-dose screen; conditions: Homo sapiens, single dose 10 µM, '-' = no inhibition, read-out: % Growth Inhibition
Description: as §1, §2

SF-539 = test: NCI-60 single-dose screen; conditions: Homo sapiens, single dose 10 µM, '-' = no inhibition, read-out: % Growth Inhibition
Description: as §1, §2

OVCAR-3 = test: NCI-60 single-dose screen; conditions: Homo sapiens, single dose 10 µM, '-' = no inhibition, read-out: % Growth Inhibition
Description: as §1, §2

HCT-116 = test: NCI-60 single-dose screen; conditions: Homo sapiens, single dose 10 µM, '-' = no inhibition, read-out: % Growth Inhibition
Description: as §1, §2

MALME-3M = test: NCI-60 single-dose screen; conditions: Homo sapiens, single dose 10 µM, '-' = no inhibition, read-out: % Growth Inhibition
Description: as §1, §2

MCF7 = test: NCI-60 single-dose screen; conditions: Homo sapiens, single dose 10 µM, '-' = no inhibition, read-out: % Growth Inhibition
Description: as §1, §2

MDA-MB231/ATCC = test: NCI-60 single-dose screen; conditions: Homo sapiens, MDA-MB-231, single dose 10 µM, '-' = no inhibition, read-out: % Growth Inhibition
Description: as §1, §2

A549/ATCC = test: NCI-60 single-dose screen; conditions: Homo sapiens, single dose 10 µM, '-' = no inhibition, read-out: % Growth Inhibition
Description: as §1, §2

PC-3 = test: NCI-60 single-dose screen; conditions: Homo sapiens, single dose 10 µM, '-' = no inhibition, read-out: % Growth Inhibition
Description: as §1, §2

SNB-75 = test: NCI-60 single-dose screen; conditions: Homo sapiens, single dose 10 µM, '-' = no inhibition, read-out: % Growth Inhibition
Description: as §1, §2

RXF 393 = test: NCI-60 single-dose screen; conditions: Homo sapiens, single dose 10 µM, '-' = no inhibition, read-out: % Growth Inhibition
Description: as §1, §2

NCI/ADR-RES = test: NCI-60 single-dose screen; conditions: Homo sapiens, single dose 10 µM, '-' = no inhibition, read-out: % Growth Inhibition
Description: as §1, §2

OVCAR-8 = test: NCI-60 single-dose screen; conditions: Homo sapiens, single dose 10 µM, '-' = no inhibition, read-out: % Growth Inhibition
Description: as §1, §2

SN12C = test: NCI-60 single-dose screen; conditions: Homo sapiens, single dose 10 µM, '-' = no inhibition, read-out: % Growth Inhibition
Description: as §1, §2

SNB-19 = test: NCI-60 single-dose screen; conditions: Homo sapiens, single dose 10 µM, '-' = no inhibition, read-out: % Growth Inhibition
Description: as §1, §2

SR = test: NCI-60 single-dose screen; conditions: Homo sapiens, single dose 10 µM, '-' = no inhibition, read-out: % Growth Inhibition
Description: as §1, §2

RPMI-8226 = test: NCI-60 single-dose screen; conditions: Homo sapiens, single dose 10 µM, '-' = no inhibition, read-out: % Growth Inhibition
Description: as §1, §2

EKVX = test: NCI-60 single-dose screen; conditions: Homo sapiens, single dose 10 µM, '-' = no inhibition, read-out: % Growth Inhibition
Description: as §1, §2

UO-31 = test: NCI-60 single-dose screen; conditions: Homo sapiens, single dose 10 µM, '-' = no inhibition, read-out: % Growth Inhibition
Description: as §1, §2

UACC-257 = test: NCI-60 single-dose screen; conditions: Homo sapiens, single dose 10 µM, '-' = no inhibition, read-out: % Growth Inhibition
Description: as §1, §2

HOP-92 = test: NCI-60 single-dose screen; conditions: Homo sapiens, single dose 10 µM, '-' = no inhibition, read-out: % Growth Inhibition
Description: as §1, §2

MDA-MB-435 = test: NCI-60 single-dose screen; conditions: Homo sapiens, single dose 10 µM, '-' = no inhibition, read-out: % Growth Inhibition
Description: as §1, §2

BT-549 = test: NCI-60 single-dose screen; conditions: Homo sapiens, single dose 10 µM, '-' = no inhibition, read-out: % Growth Inhibition
Description: as §1, §2

[1] = Cell viability assay (MTT) on normal cells; conditions: human, MCF-10A normal mammary gland epithelial cells, 4 days incubation
Description: This experiment examines the impact of the newly developed compounds 9–29 on normal cell lines to assess their safety level. The vitality of the investigated compounds was assessed using the MCF-10 A cell line, a normal human mammary gland epithelial cell line. Following 4 days of incubation on MCF-10 A cells with each examined compound at a concentration of 50 μM, the vitality of the cells was assessed using the MTT test ([Mahmoud et al., 2022]; [Mekheimer et al., 2022]).
This experiment examines the impact of the newly developed compounds 9–29 on normal cell lines to assess their safety level. The viability of 9–29 was assessed using the MCF-10 A cell line, a normal human mammary gland epithelial cell line. Following 4 days of incubation on MCF-10 A cells with each examined compound at a concentration of 50 μM, the vitality of the cells was assessed using the MTT test ([Mahmoud et al., 2022]; [Mekheimer et al., 2022]). Refer to Supplementary Material A1 for more details. […]
4.2. Biological evaluation
4.2.1. Cytotoxic activity using MTT Assay and evaluation of IC50
MTT assay was carried out to study the effect of compounds on mammary epithelial cells (MCF-10A). The medium in which cells were propagated contained Dulbecco's modified Eagle's medium (DMEM)/ Ham's F-12 medium (1:1) supplemented with epidermal growth factor (20 ng/mL), hydrocortisone (500 ng/mL), insulin (10 μg/mL), 2 mM glutamine and 10% foetal calf serum.
After every 2-3 days, the cells were passaged using trypsin ethylenediamine tetra acetic acid (EDTA). The cells were seeded at a density of 10^4 cells mL-1 in flat-bottomed culture plates containing 96 wells each. After 24 h, medium was removed from the plates and the compounds in (in 0.1% DMSO) were added (in 200 μL medium to yield a final concentration of 0.1% v/v) to the wells of plates. A single compound was designated with four wells followed by incubation of plates for 96h at 37°C. After incubation, medium was removed completely from the plates followed by addition of MTT (0.4 mg/mL in medium) to each well and subsequent incubation of plates for 3h. MTT (along with the medium) was removed and DMSO (150μL) was added to each well of the culture plates, followed by vertexing and subsequent measurement of absorbance (at 540 nm) using microplate reader. The data are shown as percentage inhibition of proliferation in comparison with controls containing 0.1% DMSO. […]

[2] = system: four cancer cell lines (A-549, MCF-7, Panc-1, HT-29); test: Antiproliferative assay, average over four cancer cell lines; conditions: Homo sapiens; average of the four cancer cell lines; read-out: Average IC50 (GI50)
Source text: Table 2 presents the four cancer cell lines’ median inhibitory concentration (IC50) and GI50 (average IC50) values.
The IC50 values were derived from dose-response tests. The reported data are derived from at least two independent studies, each comprising three replicates per concentration. See Supplementary Material A1 for more details.

COc1ccc(-c2cc(-c3cccc(OC)c3)nc(SC)n2)cc1 [Compound 16, 6-(3-Methoxyphenyl)-4-(4-methoxyphenyl)-2-(methylthio)pyrimidine]
inhibition at 10 µM (IGROV1): < 0% | inhibition at 10 µM (COLO 205): < 0% | inhibition at 10 µM (HS 578T): 5.45% | inhibition at 10 µM (SF-539): < 0% | inhibition at 10 µM (OVCAR-3): < 0% | inhibition at 10 µM (HCT-116): 17.3% | inhibition at 10 µM (MALME-3M): < 0% | inhibition at 10 µM (MCF7): 11.3% | inhibition at 10 µM (MDA-MB231/ATCC): 11% | inhibition at 10 µM (A549/ATCC): 13% | inhibition at 10 µM (PC-3): 16.6% | inhibition at 10 µM (SNB-75): < 0% | inhibition at 10 µM (RXF 393): 11.6% | inhibition at 10 µM (NCI/ADR-RES): 11.6% | inhibition at 10 µM (OVCAR-8): 6.48% | inhibition at 10 µM (SN12C): 17.9% | inhibition at 10 µM (SNB-19): < 0% | inhibition at 10 µM (SR): 27.7% | inhibition at 10 µM (RPMI-8226): 3.81% | inhibition at 10 µM (EKVX): 21.7% | inhibition at 10 µM (UO-31): 20% | inhibition at 10 µM (UACC-257): < 0% | inhibition at 10 µM (HOP-92): 1.87% | inhibition at 10 µM (MDA-MB-435): 6.06% | inhibition at 10 µM (BT-549): 3.3% | viability at 4 days, 50 µM [1]: 92% | IC50 [2]: 86 nM

COc1ccc(CSc2nc(-c3ccc(Cl)cc3)cc(-c3ccc(OC)c(OC)c3)n2)cc1 [Compound 29, 2-(4-Methoxybenzylthio)-4-(4-chlorophenyl)-6-(3,4-dimethoxyphenyl)pyrimidine]
inhibition at 10 µM (IGROV1): 6.14% | inhibition at 10 µM (COLO 205): 11.3% | inhibition at 10 µM (HS 578T): 37.5% | inhibition at 10 µM (SF-539): 14.7% | inhibition at 10 µM (OVCAR-3): < 0% | inhibition at 10 µM (HCT-116): 30.2% | inhibition at 10 µM (MALME-3M): 4.95% | inhibition at 10 µM (MCF7): 27.4% | inhibition at 10 µM (MDA-MB231/ATCC): 30.3% | inhibition at 10 µM (A549/ATCC): 30.1% | inhibition at 10 µM (PC-3): 36.4% | inhibition at 10 µM (SNB-75): 1.93% | inhibition at 10 µM (RXF 393): 24.2% | inhibition at 10 µM (NCI/ADR-RES): 32.1% | inhibition at 10 µM (OVCAR-8): 19.4% | inhibition at 10 µM (SN12C): 35.6% | inhibition at 10 µM (SNB-19): 14.2% | inhibition at 10 µM (SR): 45.8% | inhibition at 10 µM (RPMI-8226): 36.9% | inhibition at 10 µM (EKVX): 29.7% | inhibition at 10 µM (UO-31): 33.1% | inhibition at 10 µM (UACC-257): 0.85% | inhibition at 10 µM (HOP-92): 20.6% | inhibition at 10 µM (MDA-MB-435): 22.8% | inhibition at 10 µM (BT-549): 21.4% | viability at 4 days, 50 µM [1]: 91% | IC50 [2]: 24 nM
